Entries after “also recorded” stand apart in the source; their conditions may differ. Where two headings read alike, the source gives them in different places.
Key:
Aβ [1] = details: cited from earlier work
Text: The role of metal ions on amyloid aggregation and toxicity has been studied extensively. […] Cu^2+ ions increase neurotoxicity by both accelerating amyloid aggregation and increasing oxidative stress. This increased propensity of Aβ to aggregate in a Cu^2+ rich environment has been attributed to Cu^2+ ions causing Aβ to move closer to its isoelectric point, thereby inducing aggregation. […] In this work, rather than determining the affinity of metal ions to the Aβ monomer, we calculated the self-affinity of two Aβ42 peptides in the presence of copper and zinc ions.

Aβ [2] = details: cited from earlier work; remark: listed apart in the source
Text: Despite the well established effect ...

Aβ (1–42) = details: with Cu^2+ ions; cited from earlier work
Text: Our previous results led us to hypothesize that since […] AD is largely a function of abnormal Aβ clearance, increased affinity of Aβ would make amyloid clearance considerably more problematic. In this work we used single molecule force spectroscopy (SMFS) to further elucidate the mechanism of the very initi ...

amyloid-β (1–42) (Aβ42) = biological target: T1, amyloid-β (1–42) (Aβ42) (Homo sapiens, UniProt P05067); assay: Single molecule force spectroscopy / dynamic force spectroscopy (AFM) of Aβ-Aβ dimer dissociation, Friddle-De Yoreo model; assay type: binding; details: for change of Aβ-Aβ self-affinity / dimer dissociation constant by metal ion: 20 nM (nanomolar) metal ion vs aqueous HEPES buffer control; for change of association rate (kon) of Aβ-Aβ vs aqueous control: 20 nM metal ion, kon = koff/Kd; for Kd: read-out: chemical dissociation constant, Kd
T1 construct: purchased rPeptide (Bogart USA)
Text: In this work we used single molecule force spectroscopy (SMFS) to further elucidate the mechanism of the very initial stage of amyloid aggregation—the dimerization of two peptides. SMFS is a nanoscale technique whereby an atomic force microscopy (AFM) tip is used to probe the unbinding of two molecules of interest—one bound to the surface, the other to the tip. When AFM tip is brought to the surface the binding between two Aβ monomers occur and when the tip is retracted the unbinding forces between two monomers are measured. To extract kinetic and thermodynamic parameters governing the system, the retraction velocity of the tip is varied. This iteration of SMFS is referred to as dynamic force spectroscopy (DFS).
We prepared our experiments in accordance with our previous force spectroscopy experiments, of which the methods are detailed extensively in [23]. Briefly, Veeco MLCT SiNi AFM cantilever were cleaned by soaking in ethanol and exposing to UV light for 30 minutes. […] The mica and cantilevers were then soaked for 3 hours in a solution of 3400 MW NHS-PEG-MAL (Laysan Bio, Alabaster GA) solution. […] The surface of the cantilever tip and mica surface were soaked in the Aβ solution for 30 minutes. Following rinsing, unreacted maleimide groups were quenched with b-merceptoethanol. Tips and mica were then rinsed and stored in HEPES buffer.
Typical cantilever spring constants were between 8 and 120 mN/m but varied with each individual experiment. Spring constants were measured using Hutter’s thermal noise method. A series of force curves were taken with an approach and retract velocity varying between 50 and 10,000 nm/s resulting in loading rates between 0.3 and 300 nN/s. Following the collection of an Aβ42 data set in HEPES buffer, a 20 nM metal ionic solution (Cu^2+ or Zn^2+) in HEPES buffer was added to the liquid cell of the AFM and additional force curves were collected for comparison.
JPK data analysis software was used to analyze force curves. […] The force curves were smoothed, the x-axis leveled, both axes set to 0, and the force curve corrected for cantilever bending to obtain tip-sample separation, z. A WLC fit was obtained for each force curve while rupture force and contour length data were recorded. Data was sorted in order of rupture force and the highest rupture force data were eliminated using Poisson statistics to eliminate force curves that were likely the result of simultaneous multiple unbinding events.
Loading rates were corrected to account for the effect of the PEG linker. We fit the Friddle-De Yoreo reversible binding equation to the entirety of the dataset (comprised of the rupture force and corrected loading rate of each force curve) using a Levenberg-Marquardt best fit algorithm in Origin 9.0 graphing software. For pooled datasets, we used the mean spring constant of the cantilevers used in the experiments. We extracted the equilibrium force, feq, the thermal scaling factor, fβ, and the kinetic off rate, koff(feq) at the equilibrium force as well as standard errors from the dataset using the graphing software. These parameters were then used to calculate parameters ΔG (the difference in free energy between the bound and free states), xβ (the width of the energy barrier), koff (the kinetic dissociation, or off- rate), and Kd (the dissociation constant) using the equations used in [34, 35].
Analysis of variance (ANOVA) testing was conducted on ΔG, xβ, koff, and Kd. Following the ANOVA test, a post hoc Welsh’s t-test was conducted to compare the parameters for the aqueous experiments compared to the copper experiments and for the aqueous environment experiments compared to the zinc experiments.

| Compound | Cu^2+-Aβ affinity (Aβ [1]) | Cu^2+-Aβ affinity (Aβ [1]; listed as Copper) | nucleation and elongation of amyloid fibril formation (Aβ [2]; substoichiometric concentrations of Cu^2+ ions) | Aβ aggregation onset (Aβ [2]; trace concentrations of copper vs aqueous without metal ions) | unbinding force between two Aβ (1–42) peptides (Aβ (1–42)) | change of Aβ-Aβ self-affinity / dimer dissociation constant by metal ion (amyloid-β (1–42) (Aβ42); listed as copper) | change of association rate (kon) of Aβ-Aβ vs aqueous control (amyloid-β (1–42) (Aβ42)) | change of Aβ-Aβ self-affinity / dimer dissociation constant by metal ion (amyloid-β (1–42) (Aβ42)) | change of Aβ-Aβ self-affinity / dimer dissociation constant by metal ion (amyloid-β (1–42) (Aβ42); listed as zinc) | change of height of the energy barrier (amyloid-β (1–42) (Aβ42); with Zn^2+ 20 nM vs aqueous control) | ΔG (free energy difference between bound and unbound states) for Aβ-Aβ unbinding (amyloid-β (1–42) (Aβ42); aqueous HEPES 50 mM buffer, pH 7.4, 150 mM NaCl, no metal ion added) | Kd (amyloid-β (1–42) (Aβ42); control, Aβ dimerization in HEPES buffer) | Kd (amyloid-β (1–42) (Aβ42); with 20 nM Cu^2+) | ΔG (free energy difference between bound and unbound states) for Aβ-Aβ unbinding (amyloid-β (1–42) (Aβ42); with Cu^2+ [20nM] in HEPES buffer pH 7.4) | ΔG (free energy difference between bound and unbound states) for Aβ-Aβ unbinding (amyloid-β (1–42) (Aβ42); with Zn^2+ [20nM] in HEPES buffer pH 7.4) |
| --- | --- | --- | --- | --- | --- | --- | --- | --- | --- | --- | --- | --- | --- | --- | --- |
| [Cu+2] [Cu^2+, copper] | nanomolar to picomolar range | nano- to picomolar range | induce acceleration in both the nucleation and elongation phases of amyloid fibril formation | Aβ begins to aggregate instantly compared to the characteristic lag period | increased the unbinding force between two Aβ (1–42) peptides | do not change the single molecule affinity of Aβ to another Aβ peptide in a statistically significant way; also recorded: does not change the dissociation constant by a statistically significant amount; also recorded: did not measure a significant effect | approximately half an order of magnitude higher; also recorded: approximately five times higher than the association rate in the control experiments | – | – | – | – | – | – | – | – |
| [Zn+2] [Zn^2+, zinc] | – | – | – | – | – | – | half an order of magnitude lower; also recorded: one-fifth of the control experiment | decreases the affinity of Aβ-Aβ interactions by an order of magnitude | decrease the affinity of Aβ-Aβ by an order of magnitude; also recorded: increases the dimer dissociation constant (which corresponds to a decreased monomer-monomer chemical affinity) by an order of magnitude | decreased the height of the energy barrier | – | – | – | – | – |
| amyloid-β (1–42) [Aβ-Aβ] | – | – | – | – | – | – | – | – | – | – | 7.83 ± 3.03 kBT | 402 µM | 173 µM | 8.66 ± 1.62 kBT | 4.89 ± 1.35 kBT |
